The text below walks through data of patent US5017723A, “Substituted ethylamines, their preparation process, their use as medicine and their synthesising agents” (Jouveinal S.A., priority 1990, dated 1991).

Like-named read-outs stand apart in the source and are kept apart here.

One test concerns the target opiated mu receptor (Cavia porcellus, UniProt A0ACM8Q262). Type of test: binding, guinea pig. Conditions: inhibition of 50% of radioligand bonds; read-out: CI50 affinity mu rec. How it is done: (§1) The analysis is carried out in accordance with the technique described by F. Roman et al. in J. Pharm. Pharmcol. 1987, 39, p. 404-407 which consists of analysing the displacement of specific radioactive ligands of the opiated mu, delta and kappa sub receptors by the action of the test products on the membranous receptors of a guinea pig.

For test [1], the system named is convulsion induced by picrotoxine in mice. Kind of test: Protection against picrotoxine-induced convulsion (suppression of the tonic extension phase). Type of test: in vivo, male Swiss mice. The note with it: for responders at 50 mg/kg / responders at 100 mg/kg / ED50: Mus musculus; for responders at 50 mg/kg: 0.5 h, read-out: i.p.: % prot. (percentage of protected animals), 50 mg/kg i.p., picrotoxine 24 mg/kg i.p. 30 min later; for responders at 100 mg/kg: 1 h, read-out: p.o.: % prot. (percentage of protected animals), 100 mg/kg p.o., picrotoxine 24 mg/kg i.p. 60 min later. An excerpt: The psychotropic properties of the compounds have been determined by the protection of the induced convulsion by picrotoxine for mice, which is achieved by the method derived from that of Krall et al., "Epilepsia", 1978, 19, p. 409-428.
The administration of picrotoxine caused a convulsive crisis in the animal characterised by a myoclonic extension syndrome followed by the extension of the limbs causing the animal to die. Certain substances, particularly those active on the complex GABA/benzodiazepines/Cl-ionophore makes it possible to protect the animals from this convulsive crisis.
In practice the study is carried out on batches of 10 male "Swiss" mice weighing approximately 20 g, which are administered with the product to be studied in aqueous solution either by intraperitoneal route (i.p.) at the rate of 50 mg/kg and in a volume of 0.2 ml of solution per animal, or by oral route (p.o) in a volume of 2.0 ml of solution per animal.
An injection of a solution of picrotoxine at the rate of 24 mg/kg in a volume of 0.2 ml per animal is then administered by interperitoneal route, either 30 minutes after administering the product by interperitoneal route or 60 minutes after administering the product by oral route. The dose of the product injected causing a clonic crisis, which results in untreated animals dying. The suppression of the extension tonic phase in the animals treated under the conditions of the test is observed. The results are expressed:
either in percentages of protected animals of this phase to the reaction of 50 mg/kg of the compound of the study administered by i.p. route or 100 mg/kg by p.o route,
or in DE50 for each of these routes, which is the efficient dosage of the test compound expressed in mg/kg protecting 50% of the animals of this extension phase. The significant value of the results being generally indicated in the following manner:
* Significant result at p<0.05
** Significant result at p<0.01
*** Significant highly significant at p<0.001.

In a further test the test system is bladder of the rat. Briefly: Transvesical cystomanometry on wide awake rat (urological activity). The format is in vivo, female rat. The note with it: for activity on the urinary tract compared to the reference compounds (in words): compared to Dicyclomine and Baclofen; for change in vivo at 2.5 mg/kg / change in vivo at 5 mg/kg: Rattus norvegicus, iv; for change in vivo at 5 mg/kg: 5,0 mg/kg i.v. How it is done: Studies by a similar method of operation, the compounds of the invention (I.A) which show a mu and kappa affinity also have an activity on certain functional parameters of the bladder of the rat which justifies their interest in the treatment of dysfunctions in the urinary tract.
The study carried out consists of transvesical cystomanometry on a wide awake rat. The following was measured during the storage and emission phases of urine under continuous intervesical perfusion of sterile physiological serum:
the "threshold pressure", which is the intervesical pressure immediately preceding the contraction phase of the detrusor
the volume of each urinary emission.
The technique used in the female rat consisted of preparing the animals 48 hours before the actual experiment by effecting the implantation of two catheters in the apex of the bladder and one catheter in the left-hand jugular vein under anaesthetic, with the external end of these catheters being protected and held by a sticking plaster corset.
The animals were placed in suitable cages at the time of the test, which were equipped so as to collect and measure the urine. For each animal one vesical catheter was connected to a pressure sensor, the other to a perfusor which supplied 0.2 ml/min. of sterile physiological serum continuously.
The intravesical pressure was measured continuously during the perfusion and it was possible to observe:
a filling phase of the bladder during which the pressure increased progressively,
a sudden rising phase of this pressure during the contraction of the detrusor: the "threshold" pressure which is the pressure observed just before the pressure of the contraction phase. This threshold pressure was raised in the same way as the urinary volume at each urination.
The study consisted of observing the changes in these parameters by the action of the products (IA) which were administered in solution by intravenous route by means of the catheter placed in the left jugular vein.
Dicyclomine and Baclofen which have been considered for the treatment of hyperactive bladders (Drugs of Today, Vol. 24, no. 5, 1988, p. 337-348) were also used in this test in the form of comparison products.

For a further test, the target named is T1, opiated kappa receptor (Cavia porcellus, UniProt P41144).
T1 construct: membranous receptors of a guinea pig; from tissue
T1 sequence (P41144 whole entry): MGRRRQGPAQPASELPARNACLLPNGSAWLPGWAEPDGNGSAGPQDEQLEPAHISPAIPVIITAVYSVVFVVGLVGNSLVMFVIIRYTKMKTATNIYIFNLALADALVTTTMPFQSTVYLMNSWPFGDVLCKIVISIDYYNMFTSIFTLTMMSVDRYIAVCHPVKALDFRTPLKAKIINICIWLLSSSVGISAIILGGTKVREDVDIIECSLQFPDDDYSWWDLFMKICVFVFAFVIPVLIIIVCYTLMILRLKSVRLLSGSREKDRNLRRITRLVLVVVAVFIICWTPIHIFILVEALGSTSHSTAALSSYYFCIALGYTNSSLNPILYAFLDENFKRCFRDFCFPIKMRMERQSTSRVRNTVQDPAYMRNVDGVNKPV
Briefly: Displacement of specific radioactive ligands, opiated kappa receptor. The format is binding, guinea pig. Conditions: inhibition of 50% of radioligand bonds; read-out: CI50 affinity kappa rec. How it is done:
as §1

The target of another test is T2, opiated delta receptor (Cavia porcellus, UniProt A0A286XTF2).
T2 construct: membranous receptors of a guinea pig; from tissue
T2 sequence (A0A286XTF2 1-366): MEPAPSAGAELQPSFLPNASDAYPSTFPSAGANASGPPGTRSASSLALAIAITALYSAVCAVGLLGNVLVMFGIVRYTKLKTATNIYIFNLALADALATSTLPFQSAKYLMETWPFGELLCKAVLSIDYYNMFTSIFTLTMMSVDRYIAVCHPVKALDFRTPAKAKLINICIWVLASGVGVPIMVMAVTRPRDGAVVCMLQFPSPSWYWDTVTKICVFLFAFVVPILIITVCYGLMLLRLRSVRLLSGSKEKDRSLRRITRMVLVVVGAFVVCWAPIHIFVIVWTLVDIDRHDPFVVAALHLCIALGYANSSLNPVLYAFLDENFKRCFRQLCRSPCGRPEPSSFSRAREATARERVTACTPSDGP
Briefly: Displacement of specific radioactive ligands, opiated delta receptor. The format is binding, guinea pig. The note with it: inhibition of 50% of radioligand bonds; read-out: CI50 affinity delta rec. How it is done: as §1

Where [2] appears, read: ip, * p<0.05, ** p<0.01, *** p<0.001.
Setting [3] is: po, * p<0.05, ** p<0.01, *** p<0.001.
The mark [4] stands for this setting: read-out: % variation pressure threshold.

opiated mu receptor, sequence (A0ACM8Q262 1-400): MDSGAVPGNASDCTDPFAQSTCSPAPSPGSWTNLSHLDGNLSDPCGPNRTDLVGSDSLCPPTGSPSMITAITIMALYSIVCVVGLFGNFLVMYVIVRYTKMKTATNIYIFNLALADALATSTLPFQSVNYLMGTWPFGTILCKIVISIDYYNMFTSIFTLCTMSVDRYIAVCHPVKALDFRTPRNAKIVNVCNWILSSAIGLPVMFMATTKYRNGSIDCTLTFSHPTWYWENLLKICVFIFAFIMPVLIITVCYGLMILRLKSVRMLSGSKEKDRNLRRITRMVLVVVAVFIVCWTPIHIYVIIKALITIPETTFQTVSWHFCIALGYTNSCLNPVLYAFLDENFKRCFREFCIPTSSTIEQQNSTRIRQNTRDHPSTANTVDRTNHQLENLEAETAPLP

For `CCC(CC=Cc1ccccc1)(c1ccc(Cl)cc1)N(C)C` (single isomer, unassigned; (+)) [Example 52, (+) a-cinnamyl-N,N-dimethyl-a-ethyl-p.chlorobenzylamine], the IC50 worked out at 0.007 µM on opiated mu receptor and 0.099 µM at opiated kappa receptor. Besides, the responders at 50 mg/kg in test [1] (setting [2]) was determined as 70%. Further, the responders at 100 mg/kg in test [1] (setting [3]) amounted to 90%. For the same compound, the “activity on the urinary tract compared to the reference compounds (in words)” value in the test on bladder of the rat is reported as “important activity”.

Take `CCC(N)(CC=Cc1ccccc1)c1ccc(Cl)cc1` (single isomer, unassigned; (-)) [Example 17B, (-)a-cinnamyl-a-ethyl-p.chlorobenzylamine]: the IC50 at opiated mu receptor was found to be 0.0114 µM. The “i.p.: % prot. (percentage of protected animals)” value in test [1] (50 mg/kg i.p., picrotoxine 24 mg/kg i.p. 30 min later, * p<0.05, ** p<0.01, *** p<0.001) was 80%. In addition, in test [1] (100 mg/kg p.o., picrotoxine 24 mg/kg i.p. 60 min later, * p<0.05, ** p<0.01, *** p<0.001), the “p.o.: % prot. (percentage of protected animals)” value is 50%.

For the compound `NCC(CC(=O)O)c1ccc(Cl)cc1` (centres unmarked) [Baclofen, reference compound], the change in vivo at 2.5 mg/kg in the test on bladder of the rat (setting [4]) stood at 113%; in the test with bladder of the rat (read-out: % variation volume), 32%. In addition, in the test with bladder of the rat, the “activity on the urinary tract compared to the reference compounds (in words)” value is “most active comparative product in these tests”.

Regarding `CCN(CC)CCOC(=O)C1(C2CCCCC2)CCCCC1` [Dicyclomine, reference compound], the change in vivo at 2.5 mg/kg in the test with bladder of the rat (2,5 mg/kg i.v., read-out: % variation pressure threshold) amounted to 28%; in the test with bladder of the rat (2,5 mg/kg i.v., read-out: % variation volume), 20%.

Regarding `CCC(CC=Cc1ccc(Cl)c(Cl)c1)(NC)c1ccc(C)cc1` (centres unmarked) [Example 24, a-(3',4'-dichloro)cinnamyl-a-ethyl-N-methyl-p.methylbenzylamin], the IC50 worked out at 0.021 µM on opiated mu receptor, 1.4 µM on opiated delta receptor and 0.41 µM at opiated kappa receptor. The “p.o.: DE50” value in test [1] (p.o. route, value printed with a % sign) was 73,5%.

Regarding `CCC(CC=Cc1ccc(Cl)c(Cl)c1)(NC)c1ccc(Cl)cc1` (centres unmarked) [Example 26, a-(3' ,4'-dichloro)cinnamyl-a-ethyl-N-methyl-p.chlorobenzylamine], the IC50 was found to be 0.028 µM at opiated mu receptor, 1.07 µM at opiated delta receptor and 0.458 µM at opiated kappa receptor. The results for the change in vivo at 5 mg/kg with bladder of the rat (setting [4]) and with bladder of the rat (read-out: % variation volume) were 229% and 93%, respectively.

With `CCC(CC=Cc1ccccc1)(c1ccc(C(F)(F)F)cc1)N(C)C` (centres unmarked) [Example 34, a-cinnamyl-N,N-dimethyl-a-ethyl-p.trifluoromethylbenzylamine], in test [1] (setting [2]), the responders at 50 mg/kg was determined as 80%. The responders at 100 mg/kg in test [1] (setting [3]) is 60%.

For the compound `C=CCN(C)C(CC)(CC=Cc1ccccc1)c1ccccc1` (centres unmarked) [Example 38, N-allyl-a-cinnamyl-a-ethyl-N-methylbenzylamine], in test [1] (setting [2]), the responders at 50 mg/kg turned out to be 80%.

In the case of `CN(C)C(C)(CC=Cc1ccccc1)c1ccccc1` (centres unmarked) [Example 40, a-cinnamyl-N,N-dimethyl-a-methyl-benzylamine], the ED50 in test [1] (ip, read-out: i.p.: DE50) amounted to 16.6 mg/kg; in test [1] (po, read-out: p.o.: DE50), 37.7 mg/kg.

`CC(C)C(CC=Cc1ccccc1)(c1ccccc1)N(C)C` (centres unmarked) [Example 41, a-cinnamyl-N,N-dimethyl-a-isopropylbenzylamine]: in test [1] (po, read-out: p.o.: DE50), the ED50 was determined as 78.4 mg/kg.

With `CCCCCC(CC=Cc1ccccc1)(c1ccccc1)N(C)C` (centres unmarked) [Example 42, a-cinnamyl-N,N-dimethyl-a-pentyl-benzylamine], the ED50 in test [1] (po, read-out: p.o.: DE50) turned out to be 65 mg/kg.

Regarding `CCCN(C)C(CC)(CC=Cc1ccccc1)c1ccccc1` (centres unmarked) [Example 47, a-cinnamyl-a-ethyl-N-methyl-N-propylbenzylamine], the ED50 in test [1] (ip, read-out: i.p.: DE50) amounted to 58.2 mg/kg; in test [1] (po, read-out: p.o.: DE50), 65 mg/kg.

Consider `CN(C)C(C)(CC=Cc1ccc(Cl)c(Cl)c1)c1ccccc1` (centres unmarked) [Example 48, a-(3.4 dichloro)cinnamyl-N,N-dimethyl-a-methyl-benzylamine], for which, in test [1] (setting [2]), the responders at 50 mg/kg worked out at 90%.

As to `CCC(CC=Cc1cccs1)(c1ccccc1)N(C)C` (centres unmarked) [Example 55, N,N-dimethyl-a-ethyl-a-[30(2-thienyl)-2-propenyl]-benzylamine], the responders at 50 mg/kg in test [1] (setting [2]) is 70%. For the same compound, in test [1] (setting [3]), the responders at 100 mg/kg was determined as 70%.

As for `CCC(CC=Cc1ccsc1)(c1ccccc1)N(C)C` (centres unmarked) [Example 56, N,N-dimethyl-a-ethyl-a-[30(3-thienyl)-2-propenyl]-benzylamine], in test [1] (setting [2]), the responders at 50 mg/kg came to 70%. In test [1] (setting [3]), the responders at 100 mg/kg worked out at 80%.

`CCC(CC=Cc1ccccc1)(c1ccco1)N(C)C` (centres unmarked) [Example 59, a-cinnamyl-N,N-dimethyl-a-ethyl-2-furfurylamine]: the responders at 50 mg/kg in test [1] (setting [2]) stood at 90%. Moreover, in test [1] (setting [3]), the responders at 100 mg/kg was 100%.

Regarding `CCC(CC=Cc1cccs1)(c1ccco1)N(C)C` (centres unmarked) [Example 61, N,N-dimethyl-a-ethyl-a-[3-(2-thienyl)-2-propenyl]-2-furfurylamine], the responders at 50 mg/kg in test [1] (setting [2]) turned out to be 50%.

Take `CCC(CC=Cc1ccccc1)(c1cccs1)N(C)C` (centres unmarked) [Example 62, a-cinnamyl-N,N-dimethyl-a-ethyl-2-thienylmethylamine]: the responders at 100 mg/kg in test [1] (setting [3]) stood at 80%.

For the compound `CCC(CC=Cc1ccco1)(c1cccs1)N(C)C` (centres unmarked) [Example 64, N,N-dimethyl-a-ethyl-a-[3-(2-furyl)-2-propenyl]-2-thienylmethylamine], the responders at 50 mg/kg in test [1] (setting [2]) worked out at 70%. The responders at 100 mg/kg in test [1] (setting [3]) turned out to be 50%.

`CCC(CC=Cc1cccs1)(c1cccs1)N(C)C` (centres unmarked) [Example 65, N,N-dimethyl-a-ethyl-a-[3-(2-thienyl)-2-propenyl]-2-thienylmethylamine]: in test [1] (setting [2]), the responders at 50 mg/kg was found to be 90%. Besides, in test [1] (setting [3]), the responders at 100 mg/kg was 50%.

For the compound `CCC(CC=Cc1ccccc1)(c1ccsc1)N(C)C` (centres unmarked) [Example 67, a-cinnamyl-N,N-dimethyl-a-ethyl-3-thienylmethylamine], the responders at 50 mg/kg in test [1] (setting [2]) was found to be 70%. In addition, the responders at 100 mg/kg in test [1] (setting [3]) was 100%.

As to `CCC(CC=Cc1cccs1)(c1ccsc1)N(C)C` (centres unmarked) [Example 69, N,N-dimethyl-a-ethyl-a-[3-(2-thienyl)-2-propenyl]-3-thienylmethylamine], the responders at 50 mg/kg in test [1] (setting [2]) is 90%. Further, the responders at 100 mg/kg in test [1] (setting [3]) is 80%.

On to `CCC(CC=Cc1ccsc1)(c1ccsc1)N(C)C` (centres unmarked) [Example 70, N.N-dimethyl-a-ethyl-a-[3-(3-thienyl)-2-propenyl]-3-thienylmethylamine], for which the responders at 50 mg/kg in test [1] (setting [2]) worked out at 80%. For the same compound, the responders at 100 mg/kg in test [1] (setting [3]) was 100%.
